Results published in patent US10874669B2 (WAYNE STATE UNIVERSITY, priority 2018, dated 2020).
“Also recorded” adds a separate entry of the source. Where two headings read alike, the source gives them in different places.

Legend:
α-syn = α-syn (Homo sapiens (Human), UniProt P37840); assay: Thioflavin T assay of α-syn aggregation seeded with 0.5% PFFs; type: biochemical; details: 172.9 μM compound, 30D, 37° C., no agitation
Method: The α-syn assay was carried out by following the procedures developed by us earlier. The compounds (−)-91b (D636) and (−)-95a (D653) were incubated with α-syn seeded with 0.5% PFFs for a period of 30D at 37° C. without agitation. […] Both (−)-91b and (−)-95a lead to a significant decrease in the ThT fluorescence (p<0.0001) when compared to α-syn seeded with 0.5% PFFs alone at 30D (FIG. 5A).
The experimental conditions were followed as described in our earlier publication. Briefly, α-syn fibrils were formed by incubating purified α-syn at a concentration of 5 mg/mL at 37° C. under constant agitation at 1000 rpm in a Thermomix R shaker (Eppendorf, Hamburg, Germany) for a period of 5 days. These fibrils at a concentration of 0.5% were used to seed the aggregation of α-syn at 1.25 mg/ml (86.45 μM) with or without compounds D636 or D653 at a concentration of 172.9 μM without agitation at 37° C. for a period of 30 days. Samples were collected at 0D and 30D. Thioflavin T (ThT) assay was performed using these samples as described previously to evaluate the extent of aggregation.

cloned rat D2L receptors = cloned rat D2L receptors (Rattus norvegicus (Rat), UniProt P61169); assay: [3H]spiroperidol competition binding, rat D2L receptors in HEK-293 cells; details: values of Table 3; for Ki: rat D2 in HEK-293 cells; for D2/D3: ratio of Ki values
Sequence of cloned rat D2L receptors (P61169 whole entry): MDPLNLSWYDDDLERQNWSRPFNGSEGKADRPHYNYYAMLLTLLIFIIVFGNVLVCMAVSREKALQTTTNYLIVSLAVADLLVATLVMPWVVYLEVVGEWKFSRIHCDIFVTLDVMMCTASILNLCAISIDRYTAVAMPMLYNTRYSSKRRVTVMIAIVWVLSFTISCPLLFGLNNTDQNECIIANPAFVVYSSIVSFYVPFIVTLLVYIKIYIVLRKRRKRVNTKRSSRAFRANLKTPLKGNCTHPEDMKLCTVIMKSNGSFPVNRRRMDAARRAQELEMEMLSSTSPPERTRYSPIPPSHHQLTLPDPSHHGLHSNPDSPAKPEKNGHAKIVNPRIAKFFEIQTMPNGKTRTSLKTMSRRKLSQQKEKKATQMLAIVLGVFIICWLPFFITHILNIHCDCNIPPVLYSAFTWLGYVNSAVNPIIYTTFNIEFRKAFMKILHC
Description: (§1) All these procedures were described by us previously.

PC12 cells [1] = assay: MTT cell viability, compounds alone; type: cell-based, rat
Method: (§2) To investigate the neuroprotection property of the selected target molecules (−)-91b, (−)-95a and (−)-95c against 6-OHDA-induced cytotoxicity, we used dopaminergic rat adrenal Pheochromocytoma PC12 cells. As reported above, treatment of PC12 cells with 6-OHDA at 75 μM for 24 h produced ˜50% loss in cells viability and this concentration was used in subsequent experiments. […] However, (−)-95a produced some incremental toxicity starting at 20 μM dose (FIG. 4B). The potential neuroprotective effects of (−)-91b, (−)-95a and (−)-95c against 6-OHDA-induced toxicity were evaluated next. […] At those concentration both drugs increased cell survival by ˜20% compared to 6-OHDA (75 μM) treated alone (FIGS. 4D and 4F), indicating neuroprotective effect of these drugs. […] This could be due to the fact that the compound by itself produced toxicity to the cells at doses ≥20 μM and the presence of 6-OHDA enhanced the toxicity (FIG. 4B).
PC12 cells (ATCC CRL1721.1, Manassas, Va., USA), a rat adrenal pheochromocytoma cell line, were cultured in T-75 flasks (Greiner Bio One, Frickenhausen, Germany) and maintained in RPMI 1640 medium supplemented with 10% heat inactivated horse serum, 5% fetal bovine serum, 100 U/ml penicillin, and 100 μg/mL streptomycin at 37° C. in 95% air/5% CO2. Stock solutions of (−)-91b, (−)-95a, (−)-95c, and 6-hydroxydopamine (6-OHDA) were prepared in dimethylsulfoxide (DMSO) and aliquots were stored at −20° C. and −80° C., respectively. […]
PC12 cells were plated at 17000 cells/well density in 100 μL of media in 96-well plates and incubated at 37° C. under 5% CO2 atmosphere for 24 h. […] The absorbance was measured on a microplate reader (Biotek Epoch, Winooski, Vt., USA) at 570 nm with background correction performed at 690 nm. Data from at least three experiments were analyzed using GraphPad software (version 6, San Diego, Calif., USA). Cell viability was defined as […] compared to untreated controls.

cloned rat D3 receptors = cloned rat D3 receptors (Rattus norvegicus (Rat), UniProt P19020); assay: [3H]spiroperidol competition binding, rat D3 receptors in HEK-293 cells; details: rat D3 in HEK-293 cells; values of Table 3
Sequence of cloned rat D3 receptors (P19020 whole entry): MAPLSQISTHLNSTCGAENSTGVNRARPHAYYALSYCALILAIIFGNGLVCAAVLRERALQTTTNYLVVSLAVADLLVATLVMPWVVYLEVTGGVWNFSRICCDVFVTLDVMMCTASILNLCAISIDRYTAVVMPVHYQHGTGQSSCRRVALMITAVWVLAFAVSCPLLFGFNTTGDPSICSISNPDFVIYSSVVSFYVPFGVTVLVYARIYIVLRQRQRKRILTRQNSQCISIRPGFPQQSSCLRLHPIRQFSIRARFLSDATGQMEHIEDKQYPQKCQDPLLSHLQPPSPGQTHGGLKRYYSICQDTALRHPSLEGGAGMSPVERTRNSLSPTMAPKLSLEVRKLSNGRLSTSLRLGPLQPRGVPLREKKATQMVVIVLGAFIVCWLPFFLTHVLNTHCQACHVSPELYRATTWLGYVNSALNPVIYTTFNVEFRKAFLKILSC
Method: A well established radioligand competition assay was carried out to evaluate binding affinity of the test compounds and were compared with that of the reference agent (S)-5-OH-DPAT (Table 3). Binding affinity to rat DA D2 and D3 receptors expressed in HEK-293 cells was determined as described by us previously. […] This indicated highest tolerance of the 4-substituted carbazole derivative for interaction with the D2 and D3 receptors.
as §1

human DA D3 receptors = human DA D3 receptors (Homo sapiens (Human), UniProt P35462); assay: [35S]GTPγS binding stimulation, human D3 receptors in CHO cells; type: biochemical; details: for Emax: compared with maximum stimulation by full agonist DA
Sequence of human DA D3 receptors (P35462 whole entry): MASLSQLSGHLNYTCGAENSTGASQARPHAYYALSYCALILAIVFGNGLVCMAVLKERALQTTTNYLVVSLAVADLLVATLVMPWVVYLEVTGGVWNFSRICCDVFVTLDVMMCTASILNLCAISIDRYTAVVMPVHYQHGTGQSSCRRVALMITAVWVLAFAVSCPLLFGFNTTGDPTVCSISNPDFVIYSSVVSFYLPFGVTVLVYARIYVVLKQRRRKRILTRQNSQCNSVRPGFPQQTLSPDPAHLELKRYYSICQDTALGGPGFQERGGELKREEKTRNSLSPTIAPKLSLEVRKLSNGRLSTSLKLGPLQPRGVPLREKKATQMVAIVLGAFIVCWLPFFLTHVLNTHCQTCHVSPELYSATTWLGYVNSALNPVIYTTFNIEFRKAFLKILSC

[2] = system: reserpine-induced hypolocomotion in rats; assay: Reversal of reserpine-induced hypolocomotion in rats; details: 10 μMol/kg, ip; for duration of locomotor activation: locomotion monitored for 6 h; for reversal of reserpine-induced akinesia / hypolocomotion (horizontal activity): reserpine 5 mg/kg sc, 18 h pretreatment, rats
Method: In this model depletion of catecholamines by reserpine results in catalepsy in rats.
The following commercially available drug was used in the experiment: reserpine hydrochloride (Alfa Aesar). […] The compounds for this study were administered in a volume of 0.1-0.2 mL for subcutaneous administration and 0.5-0.7 ml for interaperitoneal administration into each rat.
In rodent studies, animals were male and female Sprague-Dawley rats from Harlan (Indianapolis, Ind.) weighing 220-225 g unless otherwise specified. Animals were maintained in sawdust-lined cages in a temperature and humidity controlled environment at 22±1° C. and 60±5% humidity, respectively. A 12 h light/dark cycle was maintained, with lights on from 6:00 a.m. to 6:00 p.m. They were group-housed with unrestricted access to food and water. All experiments were performed during the light component.
Reserpine (5.0 mg/kg, sc) was administered 18 h before the injection of drug or vehicle. The rats were placed individually in the chambers for 1 h for acclimatization before administration of the test drugs or vehicle. Immediately after administration of drug or vehicle, animals were individually placed in Opto-Varimex 4 animal activity monitor chamber (Columbus Instruments, Ohio, USA) to start measuring locomotor activity. Locomotion was monitored for 6 h. […] The data were presented as horizontal activity (HACTV). […] The data were analyzed by one-way analysis of variance (ANOVA) followed by Dunnett's post hoc test.

PC12 cells [3] = assay: MTT neuroprotection against 6-OHDA-induced toxicity; type: cell-based, rat; details: for concentration of greatest protective effect: 24 h pretreatment, then 75 μM 6-OHDA 24 h; for increase in cell survival compared to 6-OHDA treated alone: at concentration of greatest protective effect, 75 μM 6-OHDA
Method: as §2
PC12 cells (ATCC CRL1721.1, Manassas, Va., USA), a rat adrenal pheochromocytoma cell line, were cultured in T-75 flasks (Greiner Bio One, Frickenhausen, Germany) and maintained in RPMI 1640 medium supplemented with 10% heat inactivated horse serum, 5% fetal bovine serum, 100 U/ml penicillin, and 100 μg/mL streptomycin at 37° C. in 95% air/5% CO2. Stock solutions of (−)-91b, (−)-95a, (−)-95c, and 6-hydroxydopamine (6-OHDA) were prepared in dimethylsulfoxide (DMSO) and aliquots were stored at −20° C. and −80° C., respectively. For all experiments assessing neuroprotective effects of the test compounds, PC12 cells were pretreated with indicated concentrations of (−)-91b, (−)-95a and (−)-95c for 24 h and then treated with 75 μM 6-OHDA for another 24 h. The control cells were treated with above media containing 0.01% DMSO only.
PC12 cells were plated at 17000 cells/well density in 100 μL of media in 96-well plates and incubated at 37° C. under 5% CO2 atmosphere for 24 h. Cells were treated with varying concentrations of the test compounds to determine their direct effect on cell viability. Neuroprotection experiments were conducted by treating cells for 24 h with varying concentrations of (−)-91b, (−)-95a and (−)-95c. Then the drug containing media was replaced with fresh culture media followed by treatment with 75 μM of 6-OHDA alone for an additional 24 h under the same condition. After incubation for 24 h, 5 mg/mL MTT solution (prepared in Dulbecco's phosphate-buffered saline) was added to the cells (to a final concentration of 0.5 mg/mL) and the plates were further incubated at 37° C. in 95% air/5% CO2 atmosphere for 3-4 h to produce dark-blue formazan crystals. Afterward, the plates were centrifuged at 450 g for 10 min and the supernatants were carefully removed. Formazan crystals were dissolved by adding 100 μL of methanol:DMSO (1:1) mixture to each well and shaking gently at 400 rpm for 30 min at room temperature on a Thermomix R shaker (Eppendorf, Hamburg, Germany). The absorbance was measured on a microplate reader (Biotek Epoch, Winooski, Vt., USA) at 570 nm with background correction performed at 690 nm. Data from at least three experiments were analyzed using GraphPad software (version 6, San Diego, Calif., USA). Cell viability was defined as […] compared to untreated controls.

Compound	decrease in ThT fluorescence compared to seeded α-syn (α-syn) [fold]	Ki (cloned rat D2L receptors) [nM]	D2/D3 (cloned rat D2L receptors)	cell viability, compound alone (PC12 cells [1]; 0.01-30 μM, compared to untreated controls)	Ki (cloned rat D3 receptors) [nM]	EC50 (human DA D3 receptors; CHO cells, read-out: EC50 (GTPγS), D3) [nM]	Emax (human DA D3 receptors) [%]	duration of locomotor activation [2]	reversal of reserpine-induced akinesia / hypolocomotion (horizontal activity) [2]	concentration of greatest protective effect (PC12 cells [3]) [µM]	increase in cell survival compared to 6-OHDA treated alone (PC12 cells [3]) [%]	dose at which compound alone produced toxicity (PC12 cells [1]; compound alone) [µM]	EC50 (human DA D3 receptors) [nM]
CCCN(CCN1CCN(c2ccc3[nH]c4ccccc4c3c2)CC1)[C@H]1CCc2nc(N)sc2C1 [(−)-91b, (S)—N^6-(2-(4-(9H-carbazol-3-yl)piperazin-1-yl)ethyl)-N^6-propyl-4,5,6,7-tetrahydrobenzo[d]thiazole-2,6-diamine]	16	135	35	no cells loss	3.8	0.96	87 to 93	significant enhancement of locomotion for the duration of the study of 6 h	significantly reversed akinesia; also recorded: significantly different	5	~20		
CCCN(CCN1CCN(c2ccc3c(c2)[nH]c2ccccc23)CC1)[C@H]1CCc2c(O)cccc2C1 [Compound (−)-95a, (S)-6-((2-(4-(9H-carbazol-2-yl)piperazin-1-yl)ethyl)(propyl)amino)-5,6,7,8-tetrahydronaphthalen-1-ol]	3	71.2	177		0.4		85 to 92	significant enhancement of locomotion for the duration of the study of 6 h	significantly reversed akinesia; also recorded: highest in vivo activity; also recorded: significantly different	10	15	≥ 20	0.23
